# How the values were obtained:
# Endothelial lipase [1] = molecular target: T1, Endothelial lipase (Homo sapiens, UniProt Q9Y5X9); assay: Inhibition of recombinant human endothelial lipase expressed in African green monkey COS7 cells using HDL as substrate pretreated for 10 mins followed by substrate addition and measured after 30 mins by LC/MS/MS analysis
# T1 sequence (Q9Y5X9 whole entry): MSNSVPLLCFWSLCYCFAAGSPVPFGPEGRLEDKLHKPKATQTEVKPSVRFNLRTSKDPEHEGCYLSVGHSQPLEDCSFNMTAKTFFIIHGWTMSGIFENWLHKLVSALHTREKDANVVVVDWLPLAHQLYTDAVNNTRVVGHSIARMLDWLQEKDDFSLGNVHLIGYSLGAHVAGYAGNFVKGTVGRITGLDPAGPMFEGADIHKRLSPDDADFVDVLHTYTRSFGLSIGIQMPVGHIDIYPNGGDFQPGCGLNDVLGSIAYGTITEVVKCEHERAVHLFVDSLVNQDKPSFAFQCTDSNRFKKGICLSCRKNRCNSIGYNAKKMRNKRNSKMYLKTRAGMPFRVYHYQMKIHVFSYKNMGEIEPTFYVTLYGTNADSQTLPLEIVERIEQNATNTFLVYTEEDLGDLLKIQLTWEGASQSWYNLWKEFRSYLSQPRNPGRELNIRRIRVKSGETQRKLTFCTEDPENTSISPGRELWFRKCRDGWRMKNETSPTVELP
# Endothelial lipase [2] = molecular target: T1, Endothelial lipase; assay: Inhibition of endothelial lipase (unknown origin) using D31-POPC-HDL as substrate after 2 hrs in presence of human serum by LC/MS analysis
# [3] = Permeability of compound at pH 7.4 by PAMPA; format: ADME; conditions: read-out: permeability
# [4] = Metabolic stability in mouse liver microsomes assessed as parent compound remaining after 10 mins; format: ADME, Microsome; conditions: read-out: Stability
# [5] = Permeability of compound at pH 5.5 by PAMPA; format: ADME; conditions: read-out: permeability
# [6] = Half life in mouse at 1 mg/kg, iv; format: ADME, organism-based; conditions: in vivo
# [7] = Bioavailability in mouse at 1 mg/kg, […]; format: ADME, organism-based; conditions: in vivo
# [8] = AUC in mouse at 1 mg/kg, iv; format: ADME, organism-based; conditions: in vivo
# [9] = Unbound plasma concentration in mouse at 1 mg/kg, iv; format: ADME, organism-based
# [10] = AUC in mouse at 1 mg/kg, po; format: ADME, organism-based; conditions: in vivo
# [11] = Oral bioavailability in mouse at 1 mg/kg; format: ADME, organism-based; conditions: in vivo
Structure (SMILES),IC50 (Endothelial lipase [1]),IC50 (Endothelial lipase [2]),Papp [3],remaining at 10 min [4],Papp [5],also measured
Nc1c(C(=O)N[C@H]2CC[C@@H](c3ccccc3)CC2)n(-c2ccccc2)c(=O)[nH]c1=O,2.35 µM,,,,,
Nc1c(C(=O)N[C@@H]2CCc3cc(OCc4ccccc4)ccc32)[nH]c(=O)[nH]c1=O,0.017 µM,80 µM,768 nm/s,85%,,
O=C(N[C@H]1CC[C@@H](c2ccccc2)CC1)c1[nH]c(=O)n(Cc2ccccc2)c(=O)c1O,0.117 µM,32 µM,158 nm/s,,277 nm/s,
Nc1c(C(=O)N[C@H]2CC[C@@H](c3ccc(OCc4ccccc4)cc3)CC2)[nH]c(=O)[nH]c1=O,0.021 µM,35 µM,,85%,,
Nc1c(C(=O)N[C@@H]2CCCc3c(OCc4ccccc4)cccc32)[nH]c(=O)[nH]c1=O,0.049 µM,81 µM,712 nm/s,79%,960 nm/s,half-life [6]: 6.7 h; bioavailability [7]: 55%; AUC [8]: 140 µM·h; fraction unbound [9]: 0.015; AUC [10]: 79 µM·h; bioavailability [11]: 55%
Nc1c(C(=O)N[C@H]2CC[C@@H](c3ccccc3)C2)[nH]c(=O)[nH]c1=O,0.218 µM,> 952 µM,,,,
O=C(N[C@H]1CC[C@@H](c2ccccc2)CC1)c1[nH]c(=O)n(CCO)c(=O)c1O,0.08 µM,> 143 µM,,,,
Nc1c(C(=O)N[C@H]2CC[C@@H](c3ccccc3)CC2)[nH]c(=O)[nH]c1=O,0.091 µM,,,,,
CCN1CC(C(=O)NC(C)CCc2ccc(Cl)c(Cl)c2)=C(O)C1=O (stereo not drawn),,> 476 µM,35 nm/s,92%,508 nm/s,AUC [8]: 300 µM·h; fraction unbound [9]: 0.023
Nc1c(C(=O)N[C@@H]2CC[C@H](c3ccccc3)C2)[nH]c(=O)[nH]c1=O,0.175 µM,231 µM,,,,
CC(C)Cn1c(=O)[nH]c(C(=O)N[C@H]2CC[C@@H](c3ccccc3)CC2)c(O)c1=O,0.059 µM,48 µM,,100%,,
Nc1c(C(=O)N[C@@H]2CC[C@H](c3ccccc3)c3ccccc32)[nH]c(=O)[nH]c1=O,0.05 µM,76 µM,322 nm/s,92%,289 nm/s,half-life [6]: 1.4 h; AUC [8]: 11 µM·h
CO[C@]1(c2ccc(F)cc2)CC[C@@H](NC(=O)c2[nH]c(=O)[nH]c(=O)c2N)CC1,1.01 µM,,,,,
O=C(N[C@H]1CC[C@@H](c2ccccc2)CC1)c1[nH]c(=O)[nH]c(=O)c1O,0.026 µM,25 µM,12 nm/s,100%,427 nm/s,half-life [6]: 1.1 h; AUC [8]: 5.5 µM·h; fraction unbound [9]: 0.15
O=C(N[C@H]1CC[C@@H](c2ccccc2)CC1)c1[nH]c(=O)[nH]c(=O)c1NC1CCCC1,0.156 µM,436 µM,,,,
CCN1CC(C(=O)N[C@H]2CC[C@@H](c3ccccc3)CC2)=C(O)C1=O,0.082 µM,,,,,

# — ChEMBL document CHEMBL4325857, “Discovery and synthesis of tetrahydropyrimidinedione-4-carboxamides as endothelial lipase inhibitors” (Bioorg Med Chem Lett, 2018)
